The text below walks through data of patent publication US20090156598A1, “Imidazolopyrimidine modulators of TRPV1” (priority 2007, published 2009).

In experiment [1] the target is T1, human TRPV1 (Homo sapiens, UniProt Q8NER1).
T1 construct: expressed in transfected cells; host or cells: HEK293 (hTRPV1/HEK293), zeocin selection
Description: Functional assay: block of capsaicin-induced Ca2+ influx, human assay (FLIPR, hTRPV1/HEK293). As to conditions: hTRPV1/HEK293 cells, 150 nM capsaicin challenge, mean; > value = solubility limit in assay medium. It is filed as cell-based. On the procedure:
(§1) Functional assay: block of capsaicin-induced Ca^2+ influx
(§2) HEK293 cells were transfected with human TRPV1 cloned in pcDNA3.1zeo(+) using the Effectene non-liposomal lipid based transfection kit (Qiagen) (hTRPV1/HEK293). hTRPV1/HEK293 cells were routinely grown as monolayers under selection in zeocin (200 μg/mL; Invitrogen) in Dulbecco's Modified Eagle Medium (DMEM, Gibco BRL) supplemented with 10% fetal bovine serum, and penicillin/streptomycin (50 units/mL) in 5% CO2 at 37° C. Cells were passaged frequently, every 3-5 days, to avoid overgrowth, depletion of essential medium components, or acidic medium exposure. Cells were passaged using a brief wash in 0.05% trypsin with 1 mM EDTA, followed by dissociation in divalent-free phosphate-buffered saline (Hyclone #SH30028.02). Dissociated cells were seeded onto poly-D-lysine coated black-walled 96-well plates (Biocoat; Becton Dickinson #354640) at about 40,000 cells per well and grown for approximately 1 day in culture medium to near confluency. The assay buffer was composed of 130 mM NaCl, 2 mM KCl, 2 mM MgCl2, 10 mM HEPES, 5 mM glucose, and either 2 mM or 20 μM CaCl2. On the day of the experiment, the culture medium was replaced with 2 mM calcium assay buffer using an automated plate washer (EL×405; Biotek, VT). The cells were incubated in 100 μL/well Fluo-3/AM (2 μM; TEFLabs #0116) with Pluronic F127 (100 μg/mL; Sigma #P2443) for 1 h at rt in the dark. After loading the cells, the dye solution was replaced with 50 μL/well of 20 μM calcium assay buffer using the EL×405 plate washer. Test compounds (50 μL/well) were added to the plate and incubated for 30 min. Intracellular Ca^2+ levels were subsequently assayed using a Fluorometric Imaging Plate Reader (FLIPR™ instrument, Molecular Devices, CA) to simultaneously monitor Fluo-3 fluorescence in all wells (λexcitation=488 nm, λemission=540 nm) during challenge with agonist (capsaicin). The IC50 values were determined. Cells were challenged with 150 nM capsaicin and the fluorescence counts were captured following agonist addition at a sampling rate of 0.33 Hz. The contents of the wells were mixed 3 times (40 μL mix volume) immediately after the additions were made. Concentration-dependence of block was determined by exposing each well of cells in duplicate rows of a 96-well plate to a serial dilution of test compound. The concentration series usually started at 10 μM with a three-fold serial decrement in concentration. The magnitude of the capsaicin response was determined by measuring the change in fluo3 fluorescence before and 100 seconds after the addition of the agonist. Data were analyzed using a non-linear regression program (Origin; OriginLab, MA).
(§3) IC50 values shown are the average (mean) of the results obtained. Where activity is shown as greater than (>) a particular value, the value is the solubility limit of the compound in the assay medium.

For experiment [2], the target named is T2, rat TRPV1 (Rattus norvegicus, UniProt O35433).
T2 construct: expressed in transfected cells; host or cells: HEK293 (rTRPV1/HEK293), geneticin selection
T2 sequence (O35433 whole entry): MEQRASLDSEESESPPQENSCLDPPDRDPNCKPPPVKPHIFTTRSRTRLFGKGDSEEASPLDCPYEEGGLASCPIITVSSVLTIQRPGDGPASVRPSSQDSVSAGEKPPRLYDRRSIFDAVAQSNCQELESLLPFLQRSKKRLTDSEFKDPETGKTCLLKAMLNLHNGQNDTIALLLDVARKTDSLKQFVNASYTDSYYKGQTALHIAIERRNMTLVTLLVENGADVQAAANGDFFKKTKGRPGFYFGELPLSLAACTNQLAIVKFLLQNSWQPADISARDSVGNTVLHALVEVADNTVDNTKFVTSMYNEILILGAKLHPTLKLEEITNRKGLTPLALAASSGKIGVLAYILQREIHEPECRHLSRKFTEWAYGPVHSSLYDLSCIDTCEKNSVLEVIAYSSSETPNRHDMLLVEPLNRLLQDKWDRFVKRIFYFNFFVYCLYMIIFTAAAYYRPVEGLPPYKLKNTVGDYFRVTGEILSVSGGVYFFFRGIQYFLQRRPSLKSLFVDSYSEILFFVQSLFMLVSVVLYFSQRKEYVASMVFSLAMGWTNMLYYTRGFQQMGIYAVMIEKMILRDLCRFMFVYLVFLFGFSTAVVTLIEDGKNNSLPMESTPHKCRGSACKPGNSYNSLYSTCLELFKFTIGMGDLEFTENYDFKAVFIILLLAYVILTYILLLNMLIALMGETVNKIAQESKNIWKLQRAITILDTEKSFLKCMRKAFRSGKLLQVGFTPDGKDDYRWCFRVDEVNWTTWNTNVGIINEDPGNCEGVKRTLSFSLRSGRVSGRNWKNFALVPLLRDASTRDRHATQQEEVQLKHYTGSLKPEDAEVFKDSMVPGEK
The experiment is described as follows: Functional assay: block of capsaicin-induced Ca2+ influx, rat assay (FLIPR, rTRPV1/HEK293). It is filed as cell-based. As to conditions: rTRPV1/HEK293 cells, capsaicin challenge, mean; > value = solubility limit in assay medium. The method, then: as §1, §2
This assay was performed similarly to the human assay described above, but using HEK293 cells transfected with rat TRPV1 (rTRPV1/HEK293).
as §3

For orientation: IC50 means the concentration at which inhibition is half-maximal. A high value points to weaker potency.

T1 sequence (Q8NER1 whole entry): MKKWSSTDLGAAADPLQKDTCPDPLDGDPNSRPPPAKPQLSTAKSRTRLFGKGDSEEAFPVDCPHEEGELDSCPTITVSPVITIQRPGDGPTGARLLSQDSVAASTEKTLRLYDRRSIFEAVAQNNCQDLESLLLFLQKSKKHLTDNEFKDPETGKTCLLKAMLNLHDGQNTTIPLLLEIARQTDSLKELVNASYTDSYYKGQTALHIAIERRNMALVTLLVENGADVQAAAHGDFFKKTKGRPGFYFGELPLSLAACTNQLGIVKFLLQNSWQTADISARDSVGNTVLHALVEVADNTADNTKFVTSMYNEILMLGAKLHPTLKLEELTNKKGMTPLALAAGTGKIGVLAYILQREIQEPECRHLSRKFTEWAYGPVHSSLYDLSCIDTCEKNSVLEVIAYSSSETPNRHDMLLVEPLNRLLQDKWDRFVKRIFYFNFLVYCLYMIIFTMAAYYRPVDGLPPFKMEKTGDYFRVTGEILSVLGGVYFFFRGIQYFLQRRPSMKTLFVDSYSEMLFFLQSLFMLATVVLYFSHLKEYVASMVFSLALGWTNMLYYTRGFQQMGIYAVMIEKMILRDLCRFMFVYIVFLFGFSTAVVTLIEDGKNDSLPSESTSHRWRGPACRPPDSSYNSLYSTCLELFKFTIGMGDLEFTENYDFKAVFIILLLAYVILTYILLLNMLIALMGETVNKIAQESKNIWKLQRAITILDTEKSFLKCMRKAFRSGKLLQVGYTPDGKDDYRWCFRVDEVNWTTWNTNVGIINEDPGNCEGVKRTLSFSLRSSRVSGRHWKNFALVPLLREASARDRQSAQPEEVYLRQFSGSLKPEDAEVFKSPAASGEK

Take `FC(F)(F)c1ccc(Nc2ncnc3[nH]c(Nc4c(Cl)cccc4Cl)nc23)cc1` [Example 1, N^8-(2,6-Dichloro-phenyl)-N^6-(4-trifluoromethyl-phenyl)-9H-purine-6,8-diamine]: the IC50 in experiment [1] amounted to 17 nM; in experiment [2], 4.9 nM.

Compound `FC(F)(F)c1ccc(Nc2ncnc3[nH]c(Nc4c(Cl)cccc4Cl)nc23)cn1` [Example 2, N^8-(2,6-Dichloro-phenyl)-N^6-(6-trifluoromethyl-pyridin-3-yl)-9H-purine-6,8-diamine] yielded an IC50 in experiment [2] of 19 nM.

Turning to `CC(C)(C)c1ccc(Nc2ncnc3[nH]c(Nc4c(Cl)cccc4Cl)nc23)cc1` [Example 3, N^6-(4-tert-Butyl-phenyl)-N^8-(2,6-dichloro-phenyl)-9H-purine-6,8-diamine], the half-maximal inhibitory concentration (IC50) in experiment [1] stood at 2.3 nM; in experiment [2], 0.15 nM.

For `Clc1cccc(Cl)c1Nc1nc2c(Nc3ccccc3)ncnc2[nH]1` [Example 4, N^8-(2,6-Dichloro-phenyl)-N^6-phenyl-9H-purine-6,8-diamine], the results for the half-maximal inhibitory concentration (IC50) in experiment [1] and in experiment [2] were 3390 nM and 1750 nM, respectively.

Turning to `CS(=O)(=O)c1ccc(Nc2ncnc3[nH]c(Nc4c(Cl)cccc4Cl)nc23)cc1` [Example 5, N^8-(2,6-Dichloro-phenyl)-N^6-(4-methanesulfonyl-phenyl)-9H-purine-6,8-diamine], the IC50 was 170 nM in experiment [1] and 18 nM in experiment [2].

On to `Cc1nc(Nc2ccc(C(F)(F)F)cc2)c2nc(Nc3c(Cl)cccc3Cl)[nH]c2n1` [Example 6, N^8-(2,6-Dichloro-phenyl)-2-methyl-N^6-(4-trifluoromethyl-phenyl)-9H-purine-6,8-diamine], for which the IC50 came out at 29 nM in experiment [1] and 3 nM in experiment [2].

Consider `FC(F)(F)c1ccc(Nc2ncnc3[nH]c(Nc4ccccc4Cl)nc23)cc1` [Example 7, N^8-(2-Chloro-phenyl)-N^6-(4-trifluoromethyl-phenyl)-9H-purine-6,8-diamine], for which the IC50 in experiment [1] and in experiment [2] was more than 6670 nM each time.

Turning to `FC(F)(F)c1ccc(Nc2ncnc3[nH]c(Nc4ccccc4C(F)(F)F)nc23)cc1` [Example 8, N^6-(4-Trifluoromethyl-phenyl)-N^8-(2-trifluoromethyl-phenyl)-9H-purine-6,8-diamine], the IC50 is 3070 nM in experiment [1] and 1010 nM in experiment [2].

For the compound `FC(F)(F)c1ccc(Nc2ncnc3[nH]c(Nc4ccccc4C(F)(F)F)nc23)cn1` [Example 9, N^8-(2-Trifluoromethyl-phenyl)-N^6-(6-trifluoromethyl-pyridin-3-yl)-9H-purine-6,8-diamine], the IC50 in experiment [1] was found to be 2300 nM; in experiment [2], 1050 nM.

On to `Cn1c(Nc2c(Cl)cccc2Cl)nc2c(Nc3ccc(C(F)(F)F)cc3)ncnc21` [Example 10, N^8-(2,6-Dichloro-phenyl)-9-methyl-N^6-(4-trifluoromethyl-phenyl)-9H-purine-6,8-diamine], for which the IC50 in experiment [1] was determined as 1460 nM; in experiment [2], 1130 nM.
